Data reported in article PMC5554537 (Frontiers in Pharmacology, 2017).
Where two headings read alike, the source gives them in different places.

Key:
[1] = Plasma, liver and brain PK after i.p. dosing with M14; format: in vivo; conditions: i.p. M14 135 mg/kg; for half-life: read-out: Terminal T1/2
Procedure: Concentration-time data were analyzed by non-compartmental analysis using Phoenix WinNonlin (ver 6.4, Build 6.4.0768 Pharsight, United States); all AUC values were extrapolated to infinity using the linear trapezoidal rule. A compartmental model for plasma PK after dosing with SN30000 or M14 was fitted using Phoenix NLME v1.3 with random effects on the metabolite volumes of distribution, and temperature effects based on the observed body temperature at the last measurement time. Temperature effects were added or removed until there was no significant change in the log likelihood. Model fits were further assessed by visual inspection of the residuals and predicted PK.

HCT116 cells = assay: Antiproliferative potency, 4 h exposure, sulforhodamine B; format: cell-based, human; conditions: for IC50: Homo sapiens, HCT-116, 4 h, HCT116, 4 h exposure, read-out: IC50
Procedure: Antiproliferative potency of SN30000 and its major metabolites following 4 h exposure of HCT116 cells under aerobic or anoxic conditions. […]
a HCT116 cells, originally from ATCC, were authenticated by short tandem repeat profiling and confir med mycoplasma-free by PCR/ELISA assay . Cells were passaged in Alpha MEM with 5% foetal bovine serum without antibiotics. In vitro cytotoxicity of SN30000 and metabolites was measured as the inhibition of cell proliferation as described previously (Gu et al., 2009). Briefly, cells were exposed to compounds for 4 h under aerobic (20% O2) or anoxic (Bactron anaerobic chamber) conditions and then grown in an aerobic 5% CO 2 incubator for 5 d before staining with sulforhodamine B. IC50 values were deter mined by interpolation (nonlinear regression to the standard Hill equation) as the drug concentration reducing staining to 50% of controls on the same plate. b Values are mean ± SEM for the numb er of independent experiments shown in parentheses.

[2] = i.p. SN30000 186 mg/kg
Procedure: (§1) M18 was quantified by absorbance detection with reference to an external standard calibration curve.
Concentration-time data were analyzed by non-compartmental analysis using Phoenix WinNonlin (ver 6.4, Build 6.4.0768 Pharsight, United States); all AUC values were extrapolated to infinity using the linear trapezoidal rule.
SN30000, M14 and M13 were quantified by LC-MS/MS using stable isotope internal standards, while M18 was quantified by absorbance detection using external standard calibration curves.

[3] = Plasma protein binding by equilibrium dialysis; format: in vitro ADME; conditions: NIH-III mouse plasma, 37°C, 6 h
Procedure: TABLE 11: Protein binding of SN30000, M14 and M18 at the indicated concentrations in NIH-III mouse plasma, measured by equilibrium dialysisa.
(µM) Percent Protein Bound (Mean ± SD)b […]
a Protein binding was evaluated by equilibrium dialysis using a high throughput plate with 12-14KDa dialysis membrane (HTDialysis, Gales Ferry, CT) as described by Banker et al., 2003, with modification. Briefly, 100 µL samples of plasma containing SN30000 or metabolites (M14 and M18) were dialysed against 100 µL PBS (pH 7.4) in an incubator (Innova-42, New Brunswick Scientific, US ) at 37°C with shaking at 80 rpm for 6 h. To achieve matrix match, 10 µL of blank plasma was added to 90 µL of the PBS sample and 90 µL of PBS was added to 10 µL of the plasma sample. Proteins were precipitated with 3 vol of ice-cold MeCN, the centrifuged supernatants were mixed with 2 vol 45 mM ammonium formate buffer pH 4.5, and 50 µL samples were analysed by HPLC with absorbance […]
bValues are mean and SD for triplicate samples.

[4] = molecular target: T1, mouse brain acetylcholinesterase (Mus musculus, UniProt P21836); assay: biochemical
T1 construct: from tissue; host or cells: mouse brain homogenate
T1 sequence (P21836 32-614): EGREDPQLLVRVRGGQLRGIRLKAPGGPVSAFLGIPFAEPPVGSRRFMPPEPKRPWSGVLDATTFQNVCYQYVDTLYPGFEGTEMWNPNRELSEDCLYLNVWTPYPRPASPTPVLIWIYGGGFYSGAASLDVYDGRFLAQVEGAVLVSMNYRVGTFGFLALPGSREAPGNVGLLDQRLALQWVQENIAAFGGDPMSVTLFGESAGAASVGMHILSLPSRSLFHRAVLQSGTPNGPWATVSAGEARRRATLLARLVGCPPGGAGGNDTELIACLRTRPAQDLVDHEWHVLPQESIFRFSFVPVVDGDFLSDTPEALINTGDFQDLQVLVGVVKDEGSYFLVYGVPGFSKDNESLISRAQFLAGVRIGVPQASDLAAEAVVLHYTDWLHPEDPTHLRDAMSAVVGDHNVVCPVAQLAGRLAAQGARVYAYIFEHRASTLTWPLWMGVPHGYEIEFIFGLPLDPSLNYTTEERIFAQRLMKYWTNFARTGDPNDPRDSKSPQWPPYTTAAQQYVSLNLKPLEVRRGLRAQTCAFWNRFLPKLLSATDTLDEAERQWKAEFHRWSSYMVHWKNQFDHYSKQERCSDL
Procedure: TABLE 10: Inhibition of mouse brain acetylcholinesterase activitya by SN30000 and related compounds […]
aThe acetylcholinesterase inhibition assay is based on Obregon et al., 2005. Mouse brain homogenate was prepared in potassium phosphate buffer (100 mM, pH 7.4), which was pre-incubated with dithiobisnitrobenzoate (final concentration 1 mM) at 37°C for 10 min. After adding acetylthiocholine (final concentration 0.6 mM), the formation of 5-thio-2-nitrobenzoate was measured by monitoring absorbance (Spectramax- M2 spectrophotometer) at 412 nm every 30 s for 10 min. Negative controls (DMSO or saline) and positive control […]
IC50 values are based on 3-4 deter minations per compound.

in vivo = conditions: NIH-III nude, mouse, in vivo, iv
Procedure: SN30000, M14 and M18 dosing solutions were prepared fresh in normal saline, filtered through 0.45 μm Acrodisc filters (Pall Life Sciences, Port Washington, NY, United States), protected from light in amber vials, and used within 3 h. Doses are expressed as mg of free base equivalent for SN30000 and M14, and free acid in the case of M18. […] Blood samples were collected from mice at various times by cardiac puncture, seconds after cervical dislocation, into ice-cold tubes containing K2EDTA. These were placed on ice immediately after collection and centrifuged (3,000 g, 3 min) within 10 min to harvest plasma. Plasma and tissues were rapidly frozen in liquid nitrogen before storage at -80°C for subsequent bioanalysis.
as §1
Concentration-time data were analyzed by non-compartmental analysis using Phoenix WinNonlin (ver 6.4, Build 6.4.0768 Pharsight, United States); all AUC values were extrapolated to infinity using the linear trapezoidal rule. […] Model fits were further assessed by visual inspection of the residuals and predicted PK.

[5] = liver, HT29 tumour-bearing mice

For O=C(O)CCc1nc2cc3c(cc2[n+]([O-])n1)CCC3 [M18], the half-life ([1]; NIH-III nude, mouse, in vivo, ip, 135 mg/kg, liver) was 2.41 h, the Cmax ([1]; NIH-III nude, mouse, in vivo, ip, 135 mg/kg, plasma, read-out: Cmax) was 144 ± 5.3 µM and the half-life ([1]; NIH-III nude, mouse, in vivo, ip, 135 mg/kg, plasma) was 3.03 h. The Detection in brain [1] was “undetectable in brain”, the AUC ([1]; liver) was 93.3 µmol·h/kg and the Cmax ([1]; liver) was 40.0 ± 3.0 µmol/kg. The AUC ([1]; plasma) was 349 µmol·h/kg, the IC50 (HCT116 cells; aerobic (20% O2)) was greater than 1.67 mM and the IC50 (HCT116 cells; anoxic) was greater than 1.67 mM. The “Potency relative to SN30000 (fold less potent)” value (HCT116 cells; anoxic HCT116 cultures) was “at least 1000 fold”, the Detection in brain [2] was “not detected in brain” and the Plasma concentration reached ([2]; negligible elimination up to 3 h) was greater than 100 µM. The “AUC 0-3hr” value ([2]; HT29 tumour) was 34.8 µmol·h/kg, the Cmax ([2]; HT29 tumour, tumour-bearing mice) was 17.6 µmol/kg and the “AUC 0-3hr” value [2, 5] was 92 µmol·h/kg. The Cmax [2, 5] was 46.1 ± 5.2 µmol/kg, the “AUC 0-3hr” value ([2]; liver, non-tumour-bearing mice) was 107 µmol·h/kg and the Cmax ([2]; liver, non-tumour-bearing mice) was 53.5 ± 4.0 µmol/kg. For the same compound, the “AUC 0-3hr” value ([2]; plasma, HT29 tumour-bearing mice) was 322 µmol·h/kg, the “AUC 0-3hr” value ([2]; plasma, non-tumour-bearing mice) was 349 µmol·h/kg and the “Percent Protein Bound (Mean ± SD)” value ([3]; 10 µM) was 91.77 ± 0.01%. For the same compound, the “Percent Protein Bound (Mean ± SD)” value ([3]; 100 µM) was 90.32 ± 0.01%, the “Inhibition at 300 μM” value ([4]; mouse brain acetylcholinesterase, 300 μM) was “no inhibition” and the IC50 ([4]; mouse brain homogenate, 37°C) was greater than 0.3 mM. It also gave an AUC (in vivo; 1.86 mg/kg) of 0.77 µM·h, an AUC (in vivo; 18.6 mg/kg) of 10.1 µM·h and a half-life (in vivo; 18.6 mg/kg) of 1.69 h. It also gave an AUC (in vivo; 78.3 mg/kg) of 60.9 µM·h and a half-life (in vivo; 78.3 mg/kg) of 1.25 h.
